Measurements taken from patent US20260007679A1, “METHODS OF TREATING CANCER USING 3-(4-((4-(MORPHOLINOMETHYL)BENZYL)OXY)-1-OXOISOINDOLIN-2-YL)PIPERIDINE-2,6-DIONE” (Celgene Corporation, priority 2012, published 2026).
pIC50: −log10 of the molar value. Several values for one entry are separate records, joined by “and”; a condition that tells them apart may be missing. Identical values can stand only once. Like-named read-outs stand apart in the source and are kept apart here. One block for each compound: values may come before it.

How the values were obtained:
[1] = tested on: NK cell mediated ADCC against Rituximab coated lymphoma cells; test: NK cell mediated ADCC assay (LDH release); assay type: cell-based, human
Procedure: NK cells from healthy donors were isolated from buffy coat blood by negative selection using the RosetteSep NK cell enrichment cocktail (Stem Cell Technologies, Vancouver, BC) prior to Ficoll-Hypaque (Fisher Scientific Co LLC, PA) density gradient centrifugation following the manufacturers' instructions. CD56+NK cells were isolated to ˜85% purity, as determined by flow cytometry (BD Biosciences, CA).
ADCC Assay: Purified NK cells (5×104) were seeded in 96-well U-bottom plates in 100 μL of RPMI-1640 medium without phenol (Invitrogen)+2% human AB+serum (Gemini Bio Products, CA) and treated with 10 ng/mL rhIL-2 and rituximab (5 μg/mL) plus different concentrations of test compounds at 0.01 to 10 μM for 48 hours. Various lymphoma cell lines (GCB-DLBCL: WSU-DLCL2 and Farage; Follicular lymphoma: DoHH2; ABC-DLBCL: Riva; Burkitt's lymphoma [BL]: Raji) were treated with 5 µg/mL rituximab for 30 minutes at 37° C. Unbound rituximab was washed off, target cells (5×103/100 μL/well) were added to the pretreated effector cells (NK cells) at a 10:1 ratio, and the two were co-incubated for 4 hours at 37° C. Control conditions consisted of NK cells plus tumor cells treated with (1) medium alone, (2) rituximab only, or (3) IL-2 alone. Using an aliquot of supernatant (50 μL), NK cell cytotoxicity against tumor cells was analyzed using a standard lactate dehydrogenease (LDH) release assay to measure ADCC (CytoTox 96 Non-Radioactive Cytoxicity Assay, Promega, WI). Spontaneous release by target cells alone was <15% of the maximum release, as determined with target cells lysed in 1% Triton X-100. The experimental release was corrected by subtraction of the spontaneous release of effector cells at the corresponding dilution. The percentage of specific lysis was calculated according to the formula: Percentage specific lysis=100×(experimental−effector spontaneous−target spontaneous)/(target maximum−target spontaneous).
NK cell-mediated specific lysis was calculated with the following formula: Percentage specific lysis=[(experimental release−spontaneous release)/(maximum release−spontaneous release)]×100. Results were analyzed using GraphPad Prism v5.0 software. Data are presented as the percentage cytotoxicity relative to DMSO-treated cells.

Pharmacokinetics in rat = assay type: in vivo; details: SD Rat, 67% S-enantiomer, 33% R-enantiomer
[2] = tested on: Revlimid-resistant NCI-H929 R2-10; test: Proliferation and viability by 7-AAD staining; assay type: cell-based; details: Homo sapiens, NCI-H929, 120 h; R2-10; 5 days; read-out: IC50, proliferation
[3] = tested on: DoHH2 Follicular Lymphoma xenograft; test: DoHH2 Follicular Lymphoma xenograft model; assay type: in vivo, mouse
TMD8 = test: 5 day 3H thymidine incorporation; assay type: cell-based; details: Homo sapiens, ABC subtype
Procedure: (§1) Cells were treated with the tested compound for 5 days at 37° C.; proliferation of cells was determined using ^3H-thymidine incorporation method.

OCI-Ly3 = test: 5 day 3H thymidine incorporation; assay type: cell-based; details: Homo sapiens, ABC subtype
Procedure: as §1

U2932 = test: 5 day 3H thymidine incorporation; assay type: cell-based; details: Homo sapiens, ABC subtype
Procedure: as §1

Karpas-1106P = test: 5 day 3H thymidine incorporation; assay type: cell-based; details: Homo sapiens, PMBL
Procedure: as §1

RIVA = test: 5 day 3H thymidine incorporation; assay type: cell-based; details: ABC subtype
Procedure: as §1

OCI-Ly10 = test: 5 day 3H thymidine incorporation; assay type: cell-based; details: Homo sapiens, ABC subtype
Procedure: as §1

SUDHL4 = test: 5 day 3H thymidine incorporation; assay type: cell-based; details: Homo sapiens, SU-DHL-4; GCB subtype
Procedure: as §1

WSU-DLCL2 = test: 5 day 3H thymidine incorporation; assay type: cell-based; details: Homo sapiens, WSUDLCL2; GCB subtype
Procedure: as §1

OCI-Ly19 = test: 5 day 3H thymidine incorporation; assay type: cell-based; details: Homo sapiens, GCB subtype
Procedure: as §1

[4] = tested on: NCI-H929 cells (Control, Revlimid-sensitive, parental); test: Proliferation and viability by 7-AAD staining; assay type: cell-based; details: Homo sapiens, NCI-H929, 120 h; Control / parental H929; 5 days; read-out: IC50, proliferation
[5] = tested on: H929 DMSO-treated subclone; test: Proliferation and viability by 7-AAD staining; assay type: cell-based; details: Homo sapiens, NCI-H929, 120 h, 5 days, read-out: IC50 for inhibition of proliferation
Procedure: CRBN ubiquitination was measured in HEK293T cells, which were transfected with an amino-terminal His-biotin-tagged CRBN construct, then preincubated with compounds for one hour followed by treatment with the MG132 proteasome inhibitor (to arrest degradation of ubiquitinated proteins). Cells were lysed and processed to measure CRBN ubiquitination by SDS-PAGE and immunoblot analysis using an anti-ubiquitin antibody. Cell proliferation studies were conducted in lenalidomide-sensitive and refractory multiple myeloma cells. […] T-cell costimulation was measured in purified primary human T cells stimulated using immobilized anti-CD3 antibody in cell culture for 2 days, and cytokine secretion was measured by ELISA.

[6] = tested on: normal donor peripheral blood mononuclear cells; test: Immunoglobulin M and G production; assay type: cell-based; details: Homo sapiens, PBMC
Procedure: Immunoglobulin M and G (“IgG and IgM”) production was measured from normal donor peripheral blood mononuclear cells by culturing in the presence of the B cell differentiation factors recombinant human IL-2 (20U/mL), IL-10 (50 ng/mL), IL-15 (10 ng/mL), His-tagged CD40 Ligand (50 ng/mL), polyHistidine mouse IgG1 antibody (5 μg/mL), and ODN 2006-Human TLR9 ligand (10 μg/mL) for 4 days, followed by IL-2, IL-10, IL-15, and IL-6 (50 ng/mL) for an additional 3 days. IgM and IgG were measured by ELISA.

[7] = Sprague-Dawley, plasma, 10 mg/kg, 10 mpk po
[8] = 2 mg/kg monotherapy, 91% S-enantiomer, 9% R-enantiomer
[9] = 3 mg/kg monotherapy, 84% S-enantiomer, 16% R-enantiomer
[10] = 3 mg/kg with Rituxan 1 mg/kg, 84% S-enantiomer, 16% R-enantiomer
[11] = 30 mg/kg monotherapy, Compound I-S: 84% S-enantiomer, 16% R-enantiomer
[12] = 30 mg/kg with Rituxan 1 mg/kg, Compound I-S: 84% S-enantiomer, 16% R-enantiomer
[13] = 40 mg/kg monotherapy, Compound I-S: 91% S-enantiomer, 9% R-enantiomer

Structure (SMILES): O=C1CCC(N2Cc3c(OCc4ccc(CN5CCOCC5)cc4)cccc3C2=O)C(=O)N1 (racemic) [Compound I, 3-(4-((4-(morpholinomethyl)benzyl)oxy)-1-oxoisoindolin-2-yl)piperidine-2,6-dione]
concentration of peak ADCC activity ([1]; Farage cells): 1 µM
concentration of peak ADCC activity ([1]; Raji cells): 0.1 µM
rituximab-mediated ADCC, all cell lines ([1]; WSU-DLCL2, Farage, DoHH2, Riva, Raji): more active than compounds I-S and I-R in all the cell lines tested except in Riva cells
concentration of peak ADCC activity ([1]; WSU-DLCL2 cells): 0.1 µM
concentration of peak ADCC activity ([1]; other cell lines (than WSU-DLCL2 and Raji)): 1 µM

F (Pharmacokinetics in rat; 10 mpk po): 52%
AUC (Pharmacokinetics in rat; Sprague-Dawley, plasma, 2 mg/kg, 2 mpk iv): 890 ng·h/mL and 2 µM·h
clearance (Pharmacokinetics in rat; Sprague-Dawley, plasma, 2 mg/kg, 2 mpk iv, read-out: CLp): 37 mL/min/kg
Vd (Pharmacokinetics in rat; Sprague-Dawley, plasma, 2 mg/kg, 2 mpk iv, read-out: Vss): 2.9 L/kg
AUC (Pharmacokinetics in rat; [7]): 2400 ng·h/mL and 5.2 µM·h
Cmax (Pharmacokinetics in rat; [7]): 1500 ng/mL and 3.3 µM
pIC50 [2]: 5.92
pIC50 (TMD8): 7.23
pIC50 (OCI-Ly3): < 5.00
pIC50 (U2932): 8.30
pIC50 (Karpas-1106P): 6.55
pIC50 (RIVA): 5.64
pIC50 (OCI-Ly10): 9.05
pIC50 (SUDHL4): 5.80
pIC50 (WSU-DLCL2): 6.62
pIC50 (OCI-Ly19): < 5.00
pIC50 [5]: 7.40
Structure (SMILES): O=C1CC[C@H](N2Cc3c(OCc4ccc(CN5CCOCC5)cc4)cccc3C2=O)C(=O)N1 [Compound I-S, (S)-3-(4-((4-(morpholinomethyl)benzyl)oxy)-1-oxoisoindolin-2-yl)piperidine-2,6-dione]
% TGD ((T − C)/C) [3, 8]: 33%
% TGI at D12 (T/C) [3, 8]: 49%
tumor growth, combination study ([3]; 3 mg/kg in combination with Rituxan): more efficacious than Revlimid at 30 mg/kg in combination with Rituxan
% TGD ((T − C)/C) [3, 9]: 13%
% TGI at D12 (T/C) [3, 9]: 27%
% TGD ((T − C)/C) [3, 10]: 57%
% TGI at D12 (T/C) [3, 10]: 71%
% TGD ((T − C)/C) [3, 11]: 21%
% TGI at D12 (T/C) [3, 11]: 35%
% TGD ((T − C)/C) [3, 12]: 56%
% TGI at D12 (T/C) [3, 12]: 50%
% TGD ((T − C)/C) [3, 13]: 52%
% TGI at D12 (T/C) [3, 13]: 67%
tumor growth, monotherapy study ([3]; 2 and 40 mg/kg): significantly inhibits tumor growth
pIC50 [4]: 8.00
pIC50 ([6]; read-out: IgG production IC50): 8.68
pIC50 ([6]; read-out: IgM production IC50): 9.46
